Data published in patent publication US20240166664A1, “TRIHETEROCYCLIC COMPOUND, PREPARATION METHOD THEREFOR, AND APPLICATION THEREOF” (SHANGHAI APEIRON THERAPEUTICS COMPANY LIMITED, priority 2021, published 2024).
Like-named read-outs stand apart in the source and are kept apart here.

What was measured:
PARP7 = molecular target: T1, PARP7 (Homo sapiens, UniProt Q7Z3E1); test: Test of inhibitory activity against PARP7 enzyme (PARP7 FLAG-tag, Probe A, time-resolved fluorescence); type: biochemical; details: PARP7 12 nM, Probe A 2 nM, 1 hr room temperature
T1 construct: purchased BPS 80527
T1 sequence (Q7Z3E1 1-657): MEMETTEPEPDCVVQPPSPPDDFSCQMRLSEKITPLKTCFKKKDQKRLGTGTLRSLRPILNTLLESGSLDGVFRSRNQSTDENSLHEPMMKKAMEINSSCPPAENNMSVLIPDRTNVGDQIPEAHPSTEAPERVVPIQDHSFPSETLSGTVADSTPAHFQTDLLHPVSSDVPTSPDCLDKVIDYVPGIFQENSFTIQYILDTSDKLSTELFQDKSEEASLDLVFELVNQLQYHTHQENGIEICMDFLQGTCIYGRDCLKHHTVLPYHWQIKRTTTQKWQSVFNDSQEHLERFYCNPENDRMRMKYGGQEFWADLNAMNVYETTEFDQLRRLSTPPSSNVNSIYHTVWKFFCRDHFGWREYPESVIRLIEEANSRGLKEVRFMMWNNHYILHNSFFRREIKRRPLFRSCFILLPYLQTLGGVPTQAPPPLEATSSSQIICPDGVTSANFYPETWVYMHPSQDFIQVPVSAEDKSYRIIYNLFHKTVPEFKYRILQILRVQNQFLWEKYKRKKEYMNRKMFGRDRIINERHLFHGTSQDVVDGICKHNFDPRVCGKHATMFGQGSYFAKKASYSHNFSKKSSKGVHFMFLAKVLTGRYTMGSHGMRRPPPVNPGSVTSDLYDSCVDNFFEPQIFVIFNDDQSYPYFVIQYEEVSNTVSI

NCI-H1373 cells = test: Cell proliferation inhibition assay (CTG method); type: cell-based, human; details: read-out: IC50 (nM) for NCI-H1373 cell viability
[1] = Homo sapiens, NCI-H1373, 144 h, NCI-H1373 cells, 6 days incubation, CTG method

Compound	IC50 (PARP7)	IC50 (NCI-H1373 cells; [1])	IC50 (NCI-H1373 cells; NCI-H1373 cells, 6 days incubation, CTG method)	IC50 (NCI-H1373 cells; Homo sapiens, NCI-H1373, 144 h)
C[C@@H](COCCC(=O)N1CCN2Cc3ncc(C(F)(F)F)cc3OC[C@H]2C1)Nc1cn[nH]c(=O)c1C(F)(F)F [Compound 18, 5-(((S)-1-(3-oxo-3-((R)-3-(trifluoromethyl)-6a, 7,9,10-tetrahydro-12H-pyrazino[2,1-c]pyrido[2,3-f][1,4]oxazepin-8(6H)-yl)propoxy)prop-2-yl)amino)-4-(trifluoromethyl)pyridazin-3(2H)-one]	10 to 100 nM	> 5000 nM	–	–
C[C@@H](COCCC(=O)N1CCN2Cc3ncc(C(F)(F)F)cc3OC[C@@H]2C1)Nc1cn[nH]c(=O)c1C(F)(F)F [Compound 19, 5-(((S)-1-(3-oxo-3-((S)-3-(trifluoromethyl)-6a, 7,9,10-tetrahydro-12H-pyrazino[2,1-c]pyrido[2,3-f][1,4]oxazepin-8(6H)-yl)propoxy)prop-2-yl)amino)-4-(trifluoromethyl)pyridazin-3(2H)-one]	100 to 500 nM	> 5000 nM	–	–
C[C@@H](COCCC(=O)N1CCN2c3ncc(C(F)(F)F)cc3N(C)CCC2C1)Nc1cn[nH]c(=O)c1C(F)(F)F (stereo partly drawn) [Compound 43, 5-((((2S)-1-(3-(5-methyl-3-(trifluoromethyl))-6,7,7a, 8,10,11-hexahydropyrazino[1,2-d]pyrido[3,2-b] [1,4]diazepine-9(5H)-yl)-3-oxopropoxy)prop-2-yl)amino)-4-(trifluoromethyl)pyridazin-3(2H)-one]	< 10 nM	100 to 500 nM	–	–
C[C@@H](COCCC(=O)N1CCN2c3ncc(C(F)(F)F)nc3N(C)C(=O)[C@H]2C1)Nc1cn[nH]c(=O)c1C(F)(F)F [Compound 48, (R)-5-methyl-8-(3-((S)-2-((6-oxo-5-(trifluoromethyl)-1,6-dihydropyridazin-4-yl)amino)propoxy)propionyl)-3-(trifluoromethyl)-7,8,9, 10-tetrahydro-5H-bipyrazino[1,2-a:2′, 3′-e]pyrazin-6(6aH)-one]	< 10 nM	< 100 nM	–	–
CC1SC[C@H]2CN(C(=O)CCOC[C@H](C)Nc3cn[nH]c(=O)c3C(F)(F)F)CCN2c2ncc(C(F)(F)F)cc21 (stereo partly drawn) [Compound 27]	< 10 nM	500 to 5000 nM	–	–
CC(COCC(O)C(=O)N1CCN2c3ncc(C(F)(F)F)cc3COCC2C1)Nc1cn[nH]c(=O)c1C(F)(F)F (single isomer, unassigned) [Compound 56]	< 10 nM	–	100 to 500 nM	–
C[C@@H](COCCC(=O)N1CCN2c3ncc(C(F)(F)F)cc3N(CCO)C(=O)[C@@H]2C1)Nc1cn[nH]c(=O)c1C(F)(F)F [Compound 41, (S)-5-(2-hydroxyethyl)-8-(3-((S)-2-((6-oxo-5-(trifluoromethyl)-1,6-dihydropyridazin-4-yl)amino)propoxy)propionyl)-3-(trifluoromethyl)-7,8,9,10-tetrahydro-5H-pyrazino[1,2-a]pyrido[3,2-e]pyrazino-6(6aH)-one]	< 10 nM	500 to 5000 nM	–	–
C[C@@H](COCCC(=O)N1CCN2c3ncc(C(F)(F)F)nc3OCC[C@H]2C1)Nc1cn[nH]c(=O)c1C(F)(F)F [Compound 47, 5-(((S)-1-(3-oxo-3-((S)-3-(trifluoromethyl)-6,7,7a, 8, 10, 11-hexahydro-9H-bipyrazino[2,3-b:1′, 2′-d][1, 4]oxazepane-9-yl)propoxy)prop-2-yl)amino)-4-(trifluoromethyl)pyridazin-3(2H)-one]	< 10 nM	< 100 nM	–	–
CCN1C(=O)[C@@H]2CN(C(=O)CCOC[C@H](C)Nc3cn[nH]c(=O)c3C(F)(F)F)CCN2c2ncc(C(F)(F)F)cc21 [Compound 40, (S)-5-ethyl-8-(3-((S)-2-((6-oxo-5-(trifluoromethyl)-1,6-dihydropyridazin-4-yl)amino)propoxy)propionyl)-3-(trifluoromethyl)-7,8,9,10-tetrahydro-5H-pyrazino[1,2-a]pyrido[3,2-e]pyrazin-6(6aH)-one]	< 10 nM	–	–	< 100 nM

Results, then the compound that gave them:

IC50 (PARP7)	IC50 (NCI-H1373 cells; [1])	IC50 (NCI-H1373 cells; NCI-H1373 cells, 6 days incubation, CTG method)	IC50 (NCI-H1373 cells; Homo sapiens, NCI-H1373, 144 h)	Compound
< 10 nM	500 to 5000 nM	–	–	C[C@@H](COCCC(=O)N1CCN2c3ncc(C(F)(F)F)nc3OC[C@@H]2C1)Nc1cn[nH]c(=O)c1C(F)(F)F [Compound 34, 5-(((S)-1-(3-oxo-3-((S)-3-(trifluoromethyl)-6a, 7,9,10-tetrahydrobipyrazino[2,3-b: 1′,2′-d][1,4]oxazin-8(6H)-yl)propoxy)prop-2-yl)amino)-4-(trifluoromethyl)pyridazin-3(2H)-one]
< 10 nM	< 100 nM	–	–	C[C@@H](COC[C@@H](F)C(=O)N1CCN2c3ncc(C(F)(F)F)cc3C=C[C@@H]2C1)Nc1cn[nH]c(=O)c1C(F)(F)F [Compound 73]
< 10 nM	500 to 5000 nM	–	–	C[C@@H](COC[C@H](F)C(=O)N1CCN2c3ncc(C(F)(F)F)cc3N(C)C(=O)[C@@H]2C1)Nc1cn[nH]c(=O)c1C(F)(F)F [Compound 66, (S)-8-((S)-2-fluoro-3-((S)-2-((6-oxo-5-(trifluoromethyl)-1,6-dihydropyridazin-4-yl)amino)propoxy)propionyl)-5-methyl-3-(trifluoromethyl)-7,8,9, 10-tetrahydro-5H-pyrazino[1,2-a]pyrido[3,2-e]pyrazin-6(6aH)-one]
< 10 nM	> 5000 nM	–	–	C[C@@H](COCCC(=O)N1CCN2c3ncc(C(F)(F)F)cc3C(=O)OC[C@@H]2C1)Nc1cn[nH]c(=O)c1C(F)(F)F [Compound 4, (S)-9-(3-((S)-2-((6-oxo-5-(trifluoromethyl)-1,6-dihydropyridazin-4-yl)amino)propoxy)propionyl)-3-(trifluoromethyl)-7,7a, 8,9,10,11-hexahydro-5H-pyrazino[2,1-c]pyrido[2,3-e][1,4]oxazin-5-one]
< 10 nM	500 to 5000 nM	–	–	C[C@@H](COCCC(=O)N1CCN2c3ncc(C(F)(F)F)cc3CNC(=O)[C@H]2C1)Nc1cn[nH]c(=O)c1C(F)(F)F [Compound 79, (R)-9-(3-((S)-2-((6-oxo-5-(trifluoromethyl)-1,6-dihydropyridazin-4-yl)amino)propoxy)propionyl)-3-(trifluoromethyl)-5,6,8,9, 10, 11-hexahydropyrazino[1,2-a]pyrido[3,2-f][1, 4]diazepin-7(7aH)-one]
< 10 nM	500 to 5000 nM	–	–	C[C@@H](COCCC(=O)N1CCN2c3ncc(C(F)(F)F)cc3C[S+]([O-])C[C@H]2C1)Nc1cn[nH]c(=O)c1C(F)(F)F (stereo partly drawn) [Compound 15, 5-(((2S)-1-(3-((7aR)-6-oxo-3-(trifluoromethyl)-7a, 8,10,11-tetrahydro-5H-pyrazino[2,1-c]pyrido[2,3-e][1,4]thiazin-9(7H)-yl)-3-oxopropoxy)prop-2-yl)amino)-4-(trifluoromethyl)pyridazin-3(2H)-one]
< 10 nM	< 100 nM	–	–	C[C@@H](COCCC(=O)N1CCN2c3ncc(C(F)(F)F)cc3OC[C@@H]2C1)Nc1cn[nH]c(=O)c1C(F)(F)F [Compound 2, 5-(((S)-1-(3-oxo-3-((S)-3-(trifluoromethyl)-6a, 7,9,10-tetrahydropyrazino[1,2-d]pyrido[3,2-b][1,4]oxazin-8(6H)-yl)propoxy)prop-2-yl)amino)-4-(trifluoromethyl)pyridazin-3(2H)-one]
< 10 nM	> 5000 nM	–	–	C[C@@H](COCCC(=O)N1CCN2c3ncc(C(F)(F)F)cc3C(=O)OC[C@H]2C1)Nc1cn[nH]c(=O)c1C(F)(F)F [Compound 3, (R)-9-(3-((S)-2-((6-oxo-5-(trifluoromethyl)-1,6-dihydropyridazin-4-yl)amino)propoxy)propionyl)-3-(trifluoromethyl)-7,7a, 8,9,10,11-hexahydro-5H-pyrazino[2,1-c]pyrido[2,3-e][1,4]oxazin-5-one]
< 10 nM	< 100 nM	–	–	C[C@@H](COCCC(=O)N1CCN2c3ncc(C(F)(F)F)cc3OC[C@H]2C1)Nc1cn[nH]c(=O)c1C(F)(F)F [Compound 1, 5-(((S)-1-(3-oxo-3-((R)-3-(trifluoromethyl)-6a, 7,9,10-tetrahydropyrazino[1,2-d]pyrido[3,2-b][1,4]oxazin-8(6H)-yl)propoxy)prop-2-yl)amino)-4-(trifluoromethyl)pyridazin-3(2H)-one]
< 10 nM	100 to 500 nM	–	–	C[C@@H](COCCC(=O)N1CCN2c3ncc(C(F)(F)F)cc3C(O)CC2C1)Nc1cn[nH]c(=O)c1C(F)(F)F (stereo partly drawn) [Compound 38]
< 10 nM	100 to 500 nM	–	–	C[C@@H](COCCC(=O)N1CCN2c3ncc(C(F)(F)F)cc3CC[C@@H]2C1)Nc1cn[nH]c(=O)c1C(F)(F)F (single isomer, unassigned) [Compound 46]
< 10 nM	500 to 5000 nM	–	–	C[C@@H](COCCC(=O)N1CCN2c3ncc(C(F)(F)F)cc3C(F)(F)C[C@H]2C1)Nc1cn[nH]c(=O)c1C(F)(F)F (single isomer, unassigned) [Compound 63]
